pEC50: −log10 of the molar value. Residues, ends and D or L forms follow the SMILES beside them. Groups on a side chain read outwards from the residue. *: point of attachment. X1 = CC(=O)N1CCC(C(=O)N(CCCN2CCC(Cc3ccc(C(=O)*)cc3)CC2)c2ccc(C)c(Cl)c2)CC1; PEG12 = NCCOCCOCCOCCOCCOCCOCCOCCOCCOCCOCCOCCOCCC(=O)O
Legend:
[1] = tested on: Human immunodeficiency virus 1; assay type: functional, organism-based; settings: Human immunodeficiency virus 1, BaL (subtype B, R5), CEMx174 5.25M7, 144 h
[2] = tested on: Human immunodeficiency virus 1; assay type: functional, organism-based, N427/N43K; settings: cemx174 5.25m7
[3] = tested on: Human immunodeficiency virus 1; assay type: functional, organism-based, D36G; settings: cemx174 5.25m7
[4] = tested on: Human immunodeficiency virus 1; assay type: functional, organism-based, V38E/N42S; settings: cemx174 5.25m7
[5] = tested on: Human immunodeficiency virus 1; assay type: functional, organism-based, V38A/N427; settings: cemx174 5.25m7

Compound: CC[C@H](C)[C@H](NC(=O)[C@H](CC(C)C)NC(=O)[C@H](CO)NC(=O)[C@H](Cc1cnc[nH]1)NC(=O)[C@@H](NC(=O)[C@H](CC(C)C)NC(=O)[C@H](CO)NC(=O)[C@@H](NC(=O)[C@H](Cc1ccc(O)cc1)NC(=O)[C@H](CC(N)=O)NC(=O)[C@H](CC(N)=O)NC(C)=O)[C@@H](C)O)[C@@H](C)CC)C(=O)N[C@@H](CCC(=O)O)C(=O)N[C@@H](CCC(=O)O)C(=O)N[C@@H](CO)C(=O)N[C@@H](CCC(N)=O)C(=O)N[C@@H](CC(N)=O)C(=O)N[C@@H](CCC(N)=O)C(=O)N[C@@H](CCC(N)=O)C(=O)N[C@@H](CCC(=O)O)C(=O)N[C@@H](CCCCN)C(=O)N[C@@H](CC(N)=O)C(=O)N[C@@H](CCC(=O)O)C(=O)N[C@@H](CCC(N)=O)C(=O)N[C@@H](CCC(=O)O)C(=O)N[C@@H](CC(C)C)C(=O)N[C@@H](CC(C)C)C(=O)N[C@@H](CCCCNC(=O)CCOCCOCCOCCOCCOCCOCCOCCOCCOCCOCCOCCOCCNC(=O)c1ccc(CC2CCN(CCCN(C(=O)C3CCN(C(C)=O)CC3)c3ccc(C)c(Cl)c3)CC2)cc1)C(N)=O (Ac-NNYTSLIHSLIEESQNQQEKNEQELLK([PEG12-X1])-NH2)
- pEC50 [1]: < 7.30

Compound: enfuvirtide
- pEC50 [2]: 6.17
- pEC50 [3]: 8.37
- pEC50 [4]: 6.58
- pEC50 [1]: 8.80
- pEC50 [5]: 6.18
